Like-named read-outs stand apart in the source and are kept apart here.
Key:
[1] = tested on: Plasmodium falciparum (chloroquine sensitive 3D7 strain); experiment: microbe, parasite or virus in culture; type: cell-based; settings: for EC50: read-out: Biological activity CE50 Antiplasmodial; for Index of Selectivity huRBC: IS = LC50 in huRBC/EC50 in P. falciparum
Experimental: The effect of compounds on the growth of the parasites was assessed by quantification of the parasite DNA stained with ethidium bromide (EtBr). Briefly, unsynchronized cultures of P. falciparum were adjusted to a 1.5%–2% parasitemia and 5% hematocrit in RPMI medium supplemented with 10% human serum. Then, 500 µL of parasites and 500 µL of each concentration of compound were placed in each well of 24-well plates. Plates were incubated for 72 h at 37 °C in a N2 (90%), CO2 (5%) and O2 (5%) atmosphere. […] After 72 h of exposure, DNA from parasites was extracted and purified using a lysis solution containing proteinase K. Each compound and each concentration were assessed in triplicate in at least two separate experiments.
Results are expressed as the median effective concentration (EC50) calculated by probit analysis using the % of inhibition: % parasite growth = (FAU Exposed parasites)/(FAU unexposed parasites) × 100(2)
(§1) The index of selectivity was calculated with the equation: IS = LC50/EC50.

[2] = tested on: intracellular amastigotes of Leishmania panamensis; experiment: Leishmanicidal activity on intracellular amastigotes, flow cytometry (GFP); type: cell-based; settings: for Index of Selectivity huMDM: IS = LC50 in huMDM/EC50 for L. panamensis; for EC50: Leishmania panamensis, read-out: Biological activity CE50 Leishmanicidal
Experimental: The leishmanicidal activity was tested on intracellular amastigotes of Leishmania panamensis by flow cytometry following the methodology previously described. Previously, huMDM were infected with promastigotes of L. panamensis transfected with the green fluorescent protein gene (MHOM/CO/87/UA140pIR-GFP) in a proportion of 35:1 (parasites:cells). Plates were incubated at 34 °C, 5% CO2, and after 3 h, cells were washed twice with phosphate buffer (PBS) and incubated again. After 24 h, the infected cells were exposed for 72 h to each concentration of the compounds. Cells were removed using trypsin/EDTA solution and washed twice with PBS by centrifuging 10 min at 1,100 rpm, 4 °C. Then, cells were analyzed in a flow cytometer (Cytomics FC 500MPL, Brea, CA, USA) by reading at 488-nm excitation, 525-nm emissions over an argon laser and counting 10,000 events. The percentage of infected cells was determined by dot plot analysis, while the parasitic load was calculated by the mean fluorescence intensity using histogram analysis. In parallel, cells incubated in medium alone were used as the controls of infection (negative control), and cells exposed to amphotericin B were used as controls of leishmanicidal activity (positive control). Each concentration was assessed in triplicate in at least two independent experiments.
Antileishmanial activity was determined according to the reduction of infected cells and their parasite load obtained for each experimental condition according to the fluorescence median intensity (FMI) emitted by the cytometer and using Equation 3, where the % of parasitemia in unexposed cells corresponds to 100% parasitemia. […] Results are expressed as the median effective concentration (EC50) calculated by probit analysis using the % of inhibition of infection: % parasitemia = (FMI Exposed cells)/(FMI unexposed cells) × 100(3)
as §1

in vitro [3] = experiment: in vitro
Excerpt: U937 cells (CRL-1593^TM) were isolated from human histiocytic lymphoma; Vero cells (CCL-81^TM) were derived from the kidney of the African green monkey, Cercopithecus aethiops; HepG2 (HB-8065^TM) cells were derived from human liver tissue, and CAD-R1 cells, a subclone, were derived from mouse neuronal cells. All cell lines were from American Type Culture Collection (Manassas, VA, USA), except CAD-R1 cells that were kindly donated by D. Chikaraishi and J. Wang (Department of Neurobiology, Duke University Medical Center, Durham, NC, USA). All cell lines were cultured in standard conditions at 37 °C, 5% CO2. U-937 cells were cultivated in RPMI 1640 medium supplemented with 10% fetal bovine serum (FBS) and antibiotics (penicillin 100 U/mL and streptomycin 0.1 mg/mL). Vero, HepG2 and CAD-R1 were cultivated in DMEM medium supplemented with 5% FBS and antibiotics.
(§2) Cytotoxic activity of rotenone and it derivatives on U-937, Vero, HepG2, […] and huMDM cells was evaluated in vitro using the MTT (3-(4,5-dimethylthiazol-2-yl)-2,5-diphenyltetrazolium bromide assay) as described previously. Cells were adjusted to 1 × 10^5 U-937 cells/mL, 2.5 × 10^5 Vero, HepG2 or CAD-R1 cells/mL and 5 × 10^5 huMDM cells/mL in RPMI 1640 supplemented with 10% SBF and the corresponding concentration of each compound. Six serial-based four-dilution concentrations from 200 to 0.19 μg/mL were tested. The amount of formazan produced by the viable cells was registered as optical densities (OD) obtained in an ELISA reader (Bio-Rad) at 570 nm. […] Additionally, hemolytic activity on huRBCs was assessed by the osmotic lysis method. In brief, O positive (O+) huRBCs were adjusted at 3% hematocrit saline solution and incubated in the presence of each compound (six serial four-fold dilutions from 200 to 0.19 µg/mL) at 37 °C. After 2 h, hemoglobin concentration in the supernatant was measured according to the OD obtained in an ELISA reader plate (Bio-Rad) at 570 nm. Cells exposed to saline solution with Triton X-100 were used as positive (lyses) controls, while unexposed cells were used as negative (viability) controls. Each compound and each concentration were assessed in triplicate in at least two separate experiments.
(§3) The percentage of viability (%V) was calculated using Equation 1, where the optical density (OD) of unexposed cells (negative control) corresponds to 100% of viability. In turn, mortality percentage corresponds to 100%–% viability: % Viability = (OD Exposed cells)/(OD Control cells) × 100(1)

in vitro [4] = settings: human
Experimental: Primary cultures of human monocyte-derived macrophages (huMDMs) and human red blood cells (huRBCs) obtained from healthy donors after signing the informed consent were also used. The huMDM were obtained from peripheral mononuclear cells isolated by Ficoll-Hypaque 1077 gradient centrifugation. huMDMs were suspended at 3 × 10^5 cells/mL in RPMI 1640 medium supplemented with 10% autologous serum. One mL of suspension was dispensed into each well of 24-well chamber slides and incubated at 37 °C, 5% of CO2 for 72 h, according to a previously described methodology. On the other hand, huRBCs were obtained from sodium citrate anticoagulated whole blood. After centrifugation at 1,500 rpm for 10 min, the RBCs were recovered and suspended in RPMI 1640 medium at 50% hematocrit and stored at 4 °C until use.
as §2, §3

[5] = Plasmodium falciparum, 3D7, 72 h, total forms of P. falciparum 3D7, unsynchronized culture, 72 h, ± SD, n = 6 replicates
[6] = L. panamensis intracellular amastigotes in huMDM, 72 h exposure, ± SD, n = 6 replicates
[7] = African green monkey (Cercopithecus aethiops)
[8] = total forms of P. falciparum 3D7, unsynchronized culture, 72 h, ± SD, n = 6 replicates

CCN(CC)CCCC(C)Nc1ccnc2cc(Cl)ccc12 (stereo not drawn) [Chloroquine, reference compound]
EC50 [1, 5]: 0.06 ± 0.03 µM

COc1cc2c(cc1OC)C1Cc3ccc4c(c3O[C@@H]1CO2)C[C@H](C(C)C)O4 (stereo partly drawn) [Compound 7, 2R,6aS,12aS-2-Isopropyl-8,9-dimethoxy-1,2,6,6a,12,12a-hexahydrochromeno-[3,4-b]furo[2,3-h]-chromene]
Index of Selectivity huMDM [2]: <4.0
EC50 [2, 6]: > 119 µM
CC50 (in vitro [3]; [7]): > 476 µM
CC50 (in vitro [3]; mouse): 1.67 ± 0.9 µM
CC50 (in vitro [4]): > 476 µM
Index of Selectivity huRBC [1]: 8.7
EC50 [1, 5]: < 50 µM
EC50 [1, 8]: 47.4 ± 0.2 µM

C=C(C)[C@H]1Cc2c(ccc3c2O[C@@H]2COc4cc(OC)c(OC)cc4[C@@H]2C3O)O1 (stereo partly drawn) [Compound 3, 2R,6aR,12aS-8,9-Dimethoxy-2-(prop-1-en-2-yl)-1,2,6,6a,12,12a-hexahydrochromeno[3,4-b]furo[2,3-h]chromen-6-ol]
Index of Selectivity huMDM [2]: <3.9
EC50 [2, 6]: > 130 µM
CC50 (in vitro [3]; [7]): 284 ± 23.6 µM
CC50 (in vitro [3]; mouse): 17 ± 3.4 µM
CC50 (in vitro [4]): > 523 µM
Index of Selectivity huRBC [1]: >9.6
EC50 [1, 5]: < 50 µM
EC50 [1, 8]: 53.9 ± 2.4 µM

COc1cccc2c1C(=O)c1c(O)c3c(c(O)c1C2=O)C[C@@](O)(C(=O)CO)C[C@@H]3O[C@H]1C[C@H](N)[C@H](O)[C@H](C)O1 [Doxorubicin, reference compound]
CC50 (in vitro [3]; [7]): 9.36 ± 2.2 µM
CC50 (in vitro [3]; mouse): 2.6 ± 0.7 µM

COc1cc2c(cc1OC)[C@@H]1C(=O)c3ccc4c(c3O[C@@H]1CO2)C[C@H](C1(C)CO1)O4 (stereo partly drawn) [Compound 2, 6aS,12aS-8,9-Dimethoxy-2-(2-methyloxiran-2-yl)-1,2,12,12a-tetrahydrochromeno[3,4-b]furo[2,3-h]-chromen-6(6aH)-one]
Index of Selectivity huMDM [2]: <3.6
EC50 [2, 6]: > 126 µM
CC50 (in vitro [3]; [7]): 81.3 ± 16.9 µM
CC50 (in vitro [3]; mouse): 29 ± 3 µM
CC50 (in vitro [4]): > 505 µM
Index of Selectivity huRBC [1]: >12.1
EC50 [1, 5]: < 50 µM
EC50 [1, 8]: 41.7 ± 12.6 µM

C[C@@H]1[C@H](O)[C@@H](C)/C=C/C=C/C=C/C=C/C=C/C=C/C=C/[C@H](O[C@@H]2O[C@H](C)[C@@H](O)[C@H](N)[C@@H]2O)C[C@@H]2O[C@](O)(C[C@@H](O)C[C@@H](O)[C@H](O)CC[C@@H](O)C[C@@H](O)CC(=O)O[C@H]1C)C[C@H](O)[C@H]2C(=O)O [Amphotericin B, reference compound]
Index of Selectivity huMDM [2]: 143.0
EC50 [2, 6]: 0.8 ± 0.2 µM
CC50 (in vitro [3]; [7]): 15.6 ± 0.4 µM
CC50 (in vitro [3]; mouse): 54.5 ± 0.3 µM

C=C(C)[C@H]1Cc2c(ccc3c2O[C@@H]2COc4cc(OC)c(OC)cc4[C@@H]2C3=O)O1 [Compound 1, rotenone]
Index of Selectivity huMDM [2]: 3.1
EC50 ([2]; 72 h): 127 ± 17.3 µM
activity against intracellular amastigotes (in words) ([2]; antileishmanial activity, L. panamensis): inactive
CC50 (in vitro [3]; [7]): > 508 µM
CC50 (in vitro [3]; mouse): 10.2 µM
CC50 at 2 h (in vitro [4]): > 508 µM
Index of Selectivity huRBC ([1]; listed as 1 (Rotenone)): >26.1
EC50 ([1]; Plasmodium falciparum, 3D7, 72 h): 19 ± 8.6 µM

Source: paper PMC6271323, “Preparation of Rotenone Derivatives and in Vitro Analysis of Their Antimalarial, Antileishmanial and Selective Cytotoxic Activities” (Molecules, 2014)
